Key:
[1] = tested on: hyperreactivity of the bronchi induced by methacholine; assay: Hyperreactivity of the bronchi, pletismometric method, rats; type: in vivo; conditions: i.p. 10 mg/kg, totally for 4 days, methacholine concentration of 50 mg/mL, measured over 24 hours after the provocative test
Description: (§1) Hyperreactivity of the Bronchi
(§2) The hyperreactivity of the bronchi was measured by pletismometric method (Buxco pletismometer), which is based on pressure difference and was performed in conscious and non-bound animals. The action of the compounds on the hyperreactivity of the bronchi induced by methacholine (Sigma) in aerosol form in different concentrations was expressed by the percentage of the increase of the enhanced pause value (PENH) above the base line, which was recorded without a cholinergic stimulant.
Compound 36 was used i.p. in rats in a dosis of 10 mg/kg within a period beginning two days prior to the provocative test to the end of test, totally for 4 days. The hyperreactivity of the bronchi was measured by pletismometric method over 24 hours after the provocative test.

[2] = tested on: hyperreactivity of the bronchi induced by methacholine; assay: Hyperreactivity of the bronchi, pletismometric method, mice; type: in vivo; conditions: i.p. 10 mg/kg, totally for 4 days, methacholine concentration of 25 mg/mL, measured over 24 hours after the provocative test
Description: as §1, §2
Compound 6 was used i.p. in mice in a dosis of 10 mg/kg within a period beginning two days prior to provocative test to the end of the test, totally for 4 days. The hyperreactivity of the bronchi was measured by pletismometric method over 24 hours after the provocative test.

Row | Compound | hyperreactivity of respiratory airways (PENH) in relation to the positive control group [1] | hyperreactivity of respiratory airways (PENH) in relation to the positive control group [2]
1 | O=c1oc2cc(Cl)ccc2c(O)c1C1c2c(c3ccc(Cl)cc3oc2=O)OC1O (centres unmarked) [Compound 36, 2-Hydroxy-3-(4-hydroxy-7-chloro-2-oxo-2H-chromene-3-yl)-7-chloro-2,3-dihydro-4H-furo[3,2-c]chromene-4-one] | statistically significantly (t-test, p<0.01) decreased | –
2 | Cc1cc(C)c2c(O)c(C3c4c(c5c(C)cc(C)cc5oc4=O)OC3O)c(=O)oc2c1 (centres unmarked) [Compound 6, 2-Hydroxy-3-(4-hydroxy-5,7-dimethyl-2-oxo-2H-chromene-3-yl)-7,9-dimethyl-2,3-dihydro-4H-furo[3,2-c]chromene-4-one] | – | statistically significantly (t-test, p<0.05) decreased

Source: patent US7208518B2, “Substituted furochromene compounds of antiinflammatory action” (GlaxoSmithKline Istrazivacki Centar Zagreb D.O.O., priority 2003, dated 2007)
